Source: article PMC10382584, “Macrocyclization of linear molecules by deep learning to facilitate macrocyclic drug candidates discovery” (Nature Communications, 2023)

Legend:
Assay in all cases: biochemical
Design in all cases: DiscoveRx KINOMEscan competition binding, percent of DMSO control signal at 100 nM
Conditions in all cases: read-out: Fig. 4a / Percent Control / Compound 1; percent of DMSO control, competition binding
[1] = target: T1, ABL1(M351T)-phosphorylated (Homo sapiens, UniProt P00519, M351T)
T1 construct: phosphorylated

ACVR2B = ACVR2B (Homo sapiens, UniProt Q13705)
ARK5 = target: T2, ARK5 (Homo sapiens, UniProt O60285)
T2 construct: gene NUAK1

CAMKK2 = CAMKK2 (Homo sapiens, UniProt Q96RR4)
CDK4-cyclinD3 = target: T3, CDK4-cyclinD3 (Homo sapiens, UniProt P11802)
T3 construct: cyclinD3

EGFR(G719S) = EGFR(G719S) (Homo sapiens, UniProt P00533, G719S)
EGFR(L858R,T790M) = EGFR(L858R,T790M) (Homo sapiens, UniProt P00533, L858R/T790M)
ERK3 = target: T4, ERK3 (Homo sapiens, UniProt Q16659)
T4 construct: gene MAPK6

FLT3(N841I) = FLT3(N841I) (Homo sapiens, UniProt P36888, N841I)
FLT4 = FLT4 (Homo sapiens, UniProt P35916)
GSK3B = GSK3B (Homo sapiens, UniProt P49841)
INSRR = INSRR (Homo sapiens, UniProt P14616)
MAP3K15 = MAP3K15 (Homo sapiens, UniProt Q6ZN16)
MYLK2 = MYLK2 (Homo sapiens, UniProt Q9H1R3)
NEK1 = NEK1 (Homo sapiens, UniProt Q96PY6)
NIK = target: T5, NIK (Homo sapiens, UniProt Q99558)
T5 construct: gene MAP3K14

PCTK3 = target: T6, PCTK3 (Homo sapiens, UniProt Q07002)
T6 construct: gene CDK18

PHKG1 = PHKG1 (Homo sapiens, UniProt Q16816)
RIPK5 = target: T7, RIPK5 (Homo sapiens, UniProt Q6XUX3)
T7 construct: gene DSTYK

SGK3 = SGK3 (Homo sapiens, UniProt Q96BR1)
SRPK3 = SRPK3 (Homo sapiens, UniProt Q9UPE1)
TGFBR1 = TGFBR1 (Homo sapiens, UniProt P36897)
TLK1 = TLK1 (Homo sapiens, UniProt Q9UKI8)
ZAK = target: T8, ZAK (Homo sapiens, UniProt Q9NYL2)
T8 construct: gene MAP3K20

p38-gamma = target: T9, p38-gamma (Homo sapiens, UniProt P53778)
T9 construct: gene MAPK12
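Note: KINOMEscan kinase panel binding assay, signal normalized between DMSO as 100% and a positive control compound as 0%.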

TGFBR1, sequence (P36897 whole entry): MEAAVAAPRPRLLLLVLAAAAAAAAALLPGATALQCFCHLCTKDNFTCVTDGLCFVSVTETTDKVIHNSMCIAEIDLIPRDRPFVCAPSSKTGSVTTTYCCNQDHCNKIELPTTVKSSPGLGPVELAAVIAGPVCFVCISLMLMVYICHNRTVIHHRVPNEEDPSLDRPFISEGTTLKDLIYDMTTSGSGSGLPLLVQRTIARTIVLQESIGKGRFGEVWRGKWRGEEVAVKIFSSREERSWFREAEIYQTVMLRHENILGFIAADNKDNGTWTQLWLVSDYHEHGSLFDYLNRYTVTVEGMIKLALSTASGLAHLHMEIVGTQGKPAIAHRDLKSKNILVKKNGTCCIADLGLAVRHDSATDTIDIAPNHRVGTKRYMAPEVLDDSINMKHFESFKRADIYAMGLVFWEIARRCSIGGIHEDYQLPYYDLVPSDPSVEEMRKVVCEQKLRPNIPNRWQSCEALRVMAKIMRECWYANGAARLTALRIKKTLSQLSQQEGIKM
T3 sequence (P11802 whole entry): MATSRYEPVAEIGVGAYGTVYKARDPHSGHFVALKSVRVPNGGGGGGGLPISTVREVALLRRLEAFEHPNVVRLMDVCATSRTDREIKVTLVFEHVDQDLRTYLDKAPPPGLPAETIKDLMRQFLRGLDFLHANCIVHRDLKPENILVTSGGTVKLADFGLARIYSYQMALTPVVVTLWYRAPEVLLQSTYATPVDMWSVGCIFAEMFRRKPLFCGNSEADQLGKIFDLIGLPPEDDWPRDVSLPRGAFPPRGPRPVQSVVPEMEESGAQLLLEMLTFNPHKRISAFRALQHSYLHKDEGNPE
T3 sequence (P30281 whole entry partner): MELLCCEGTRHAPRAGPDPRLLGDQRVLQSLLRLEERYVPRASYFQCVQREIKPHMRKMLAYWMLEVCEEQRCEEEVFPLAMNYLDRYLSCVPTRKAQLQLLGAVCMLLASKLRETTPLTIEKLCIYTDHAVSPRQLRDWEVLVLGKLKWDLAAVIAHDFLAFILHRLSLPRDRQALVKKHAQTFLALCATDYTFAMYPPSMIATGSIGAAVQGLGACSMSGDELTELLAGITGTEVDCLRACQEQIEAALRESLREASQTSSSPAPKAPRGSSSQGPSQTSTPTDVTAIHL
SRPK3, sequence (Q9UPE1 whole entry): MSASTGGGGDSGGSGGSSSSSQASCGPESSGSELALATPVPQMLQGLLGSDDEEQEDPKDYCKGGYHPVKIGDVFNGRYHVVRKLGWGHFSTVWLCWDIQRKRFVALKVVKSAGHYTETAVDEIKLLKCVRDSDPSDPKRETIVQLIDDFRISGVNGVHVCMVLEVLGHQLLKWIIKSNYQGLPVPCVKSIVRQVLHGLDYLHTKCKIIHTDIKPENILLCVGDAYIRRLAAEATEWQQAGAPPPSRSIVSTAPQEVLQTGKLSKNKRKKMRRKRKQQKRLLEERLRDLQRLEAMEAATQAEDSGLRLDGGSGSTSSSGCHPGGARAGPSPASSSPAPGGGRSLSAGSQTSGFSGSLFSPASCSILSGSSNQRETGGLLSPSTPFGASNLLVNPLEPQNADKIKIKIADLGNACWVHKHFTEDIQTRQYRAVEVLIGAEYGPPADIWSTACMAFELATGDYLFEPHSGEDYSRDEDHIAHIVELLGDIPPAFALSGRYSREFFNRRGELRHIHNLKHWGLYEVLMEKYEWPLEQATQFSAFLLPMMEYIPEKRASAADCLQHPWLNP
ACVR2B, sequence (Q13705 whole entry): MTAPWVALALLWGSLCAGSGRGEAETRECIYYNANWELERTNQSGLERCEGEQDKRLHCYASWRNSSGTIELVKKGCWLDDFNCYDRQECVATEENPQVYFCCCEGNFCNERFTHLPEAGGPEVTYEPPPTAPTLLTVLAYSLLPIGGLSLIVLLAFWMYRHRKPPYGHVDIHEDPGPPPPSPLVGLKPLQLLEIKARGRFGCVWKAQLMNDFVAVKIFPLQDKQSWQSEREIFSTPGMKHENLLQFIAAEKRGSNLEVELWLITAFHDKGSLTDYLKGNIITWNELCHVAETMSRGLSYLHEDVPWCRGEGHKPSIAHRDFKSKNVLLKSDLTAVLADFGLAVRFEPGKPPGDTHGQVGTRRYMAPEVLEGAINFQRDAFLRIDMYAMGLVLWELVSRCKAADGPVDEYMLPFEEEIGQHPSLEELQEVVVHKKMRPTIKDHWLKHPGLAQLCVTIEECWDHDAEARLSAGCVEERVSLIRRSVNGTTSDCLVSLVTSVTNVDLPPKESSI
T2 sequence (O60285 whole entry): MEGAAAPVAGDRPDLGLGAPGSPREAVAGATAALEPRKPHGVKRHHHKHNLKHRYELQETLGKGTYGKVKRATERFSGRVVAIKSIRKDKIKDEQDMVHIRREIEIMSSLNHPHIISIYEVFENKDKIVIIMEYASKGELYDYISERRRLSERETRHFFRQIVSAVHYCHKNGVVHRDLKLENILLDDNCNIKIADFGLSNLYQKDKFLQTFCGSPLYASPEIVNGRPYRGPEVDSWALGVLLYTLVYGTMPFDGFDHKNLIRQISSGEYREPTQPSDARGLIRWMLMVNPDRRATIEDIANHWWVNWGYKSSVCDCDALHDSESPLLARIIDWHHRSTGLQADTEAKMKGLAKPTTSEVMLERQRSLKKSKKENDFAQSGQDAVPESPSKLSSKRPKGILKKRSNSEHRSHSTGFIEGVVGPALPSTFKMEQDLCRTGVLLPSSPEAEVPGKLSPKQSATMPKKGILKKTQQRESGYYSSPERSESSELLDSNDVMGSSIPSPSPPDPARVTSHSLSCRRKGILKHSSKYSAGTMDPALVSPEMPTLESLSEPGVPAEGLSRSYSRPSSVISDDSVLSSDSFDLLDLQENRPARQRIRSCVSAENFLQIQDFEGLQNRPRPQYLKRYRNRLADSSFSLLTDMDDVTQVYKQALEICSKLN
EGFR(G719S), sequence (P00533 whole entry G719S): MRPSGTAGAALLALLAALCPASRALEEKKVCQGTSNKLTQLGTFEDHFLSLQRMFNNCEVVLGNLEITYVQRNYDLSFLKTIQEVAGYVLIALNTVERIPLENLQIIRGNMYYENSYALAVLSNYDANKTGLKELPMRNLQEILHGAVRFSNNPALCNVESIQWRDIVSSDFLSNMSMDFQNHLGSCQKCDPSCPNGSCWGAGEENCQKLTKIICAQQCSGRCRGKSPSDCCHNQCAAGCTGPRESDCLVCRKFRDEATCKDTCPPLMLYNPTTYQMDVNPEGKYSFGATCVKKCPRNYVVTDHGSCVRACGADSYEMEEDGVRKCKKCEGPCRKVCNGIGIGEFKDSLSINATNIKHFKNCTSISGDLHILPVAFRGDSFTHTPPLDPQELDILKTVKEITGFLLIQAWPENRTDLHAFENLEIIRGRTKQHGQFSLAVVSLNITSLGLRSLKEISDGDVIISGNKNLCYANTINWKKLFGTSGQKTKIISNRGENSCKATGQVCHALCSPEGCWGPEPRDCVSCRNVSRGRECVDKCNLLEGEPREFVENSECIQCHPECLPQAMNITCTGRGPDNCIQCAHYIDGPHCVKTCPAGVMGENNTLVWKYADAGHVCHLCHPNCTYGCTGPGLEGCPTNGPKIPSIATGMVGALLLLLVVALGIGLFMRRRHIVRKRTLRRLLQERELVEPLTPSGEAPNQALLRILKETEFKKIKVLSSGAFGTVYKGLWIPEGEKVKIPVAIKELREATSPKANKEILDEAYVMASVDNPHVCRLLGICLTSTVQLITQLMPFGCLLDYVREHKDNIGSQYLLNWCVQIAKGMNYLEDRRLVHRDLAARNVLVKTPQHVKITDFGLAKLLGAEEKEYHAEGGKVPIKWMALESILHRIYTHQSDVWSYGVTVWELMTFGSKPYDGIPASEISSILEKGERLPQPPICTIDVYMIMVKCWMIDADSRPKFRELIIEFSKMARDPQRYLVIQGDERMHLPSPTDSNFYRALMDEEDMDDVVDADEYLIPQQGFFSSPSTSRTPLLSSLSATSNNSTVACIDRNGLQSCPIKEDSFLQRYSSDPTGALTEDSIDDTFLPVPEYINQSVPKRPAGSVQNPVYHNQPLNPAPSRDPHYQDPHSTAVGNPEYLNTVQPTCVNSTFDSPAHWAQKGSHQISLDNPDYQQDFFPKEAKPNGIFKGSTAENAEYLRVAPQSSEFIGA
T9 sequence (P53778 whole entry): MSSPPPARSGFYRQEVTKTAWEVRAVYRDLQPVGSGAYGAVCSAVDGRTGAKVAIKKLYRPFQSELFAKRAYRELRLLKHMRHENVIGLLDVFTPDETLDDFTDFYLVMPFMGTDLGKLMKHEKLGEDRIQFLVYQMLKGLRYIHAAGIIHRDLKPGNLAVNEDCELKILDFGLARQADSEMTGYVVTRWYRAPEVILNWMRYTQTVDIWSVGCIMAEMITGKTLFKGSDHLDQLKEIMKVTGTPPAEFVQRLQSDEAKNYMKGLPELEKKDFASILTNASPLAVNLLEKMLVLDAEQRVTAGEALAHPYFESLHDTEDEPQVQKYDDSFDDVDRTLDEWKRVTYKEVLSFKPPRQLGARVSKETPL
SGK3, sequence (Q96BR1 whole entry): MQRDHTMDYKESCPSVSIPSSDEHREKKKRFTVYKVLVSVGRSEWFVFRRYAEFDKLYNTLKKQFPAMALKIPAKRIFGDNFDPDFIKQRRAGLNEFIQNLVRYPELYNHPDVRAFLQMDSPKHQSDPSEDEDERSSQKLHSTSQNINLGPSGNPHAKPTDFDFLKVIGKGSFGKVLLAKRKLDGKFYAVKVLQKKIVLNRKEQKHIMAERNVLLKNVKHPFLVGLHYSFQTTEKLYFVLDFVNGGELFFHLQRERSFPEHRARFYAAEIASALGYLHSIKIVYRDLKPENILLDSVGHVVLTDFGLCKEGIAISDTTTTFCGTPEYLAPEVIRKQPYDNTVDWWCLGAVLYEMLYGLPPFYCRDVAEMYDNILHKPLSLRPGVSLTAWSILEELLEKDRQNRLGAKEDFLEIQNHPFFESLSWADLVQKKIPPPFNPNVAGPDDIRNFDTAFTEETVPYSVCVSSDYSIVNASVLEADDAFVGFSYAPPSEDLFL

Cc1cnc2nc1Nc1cccc(c1)COCc1cc(ccc1OCCN1CCCC1)N2 [Compound 1]
remaining binding at 0.1 µM [1]: 63% | remaining binding at 0.1 µM (ACVR2B): 96% | remaining binding at 0.1 µM (ARK5): 51% | remaining binding at 0.1 µM (CAMKK2): 96% | remaining binding at 0.1 µM (CDK4-cyclinD3): 95% | remaining binding at 0.1 µM (EGFR(G719S)): 91% | remaining binding at 0.1 µM (EGFR(L858R,T790M)): 65% | remaining binding at 0.1 µM (ERK3): 82% | remaining binding at 0.1 µM (FLT3(N841I)): 3.5% | remaining binding at 0.1 µM (FLT4): 85% | remaining binding at 0.1 µM (GSK3B): 84% | remaining binding at 0.1 µM (INSRR): 89% | remaining binding at 0.1 µM (MAP3K15): 68% | remaining binding at 0.1 µM (MYLK2): 100% | remaining binding at 0.1 µM (NEK1): 100% | remaining binding at 0.1 µM (NIK): 74% | remaining binding at 0.1 µM (PCTK3): 85% | remaining binding at 0.1 µM (PHKG1): 87% | remaining binding at 0.1 µM (RIPK5): 93% | remaining binding at 0.1 µM (SGK3): 91% | remaining binding at 0.1 µM (SRPK3): 82% | remaining binding at 0.1 µM (TGFBR1): 94% | remaining binding at 0.1 µM (TLK1): 100% | remaining binding at 0.1 µM (ZAK): 100% | remaining binding at 0.1 µM (p38-gamma): 100%
